From ChEMBL document CHEMBL1641526, “Structure-activity relationship (SAR) of the α-amino acid residue of potent tetrahydroisoquinoline (THIQ)-derived LFA-1/ICAM-1 antagonists” (Bioorg Med Chem Lett, 2011)

Legend:
[1] = biological target: T1, Intercellular adhesion molecule (ICAM-1), Integrin alpha-L/beta-2 (Homo sapiens, UniProt P05107+P05362+P20701); experiment: Inhibition of LFA1/ICAM1 interaction in human Hut-78 cells; type: cell-based
[2] = biological target: T1, Intercellular adhesion molecule (ICAM-1), Integrin alpha-L/beta-2; experiment: Inhibition of LFA1/ICAM1 interaction in human Hut-78 cells in presence of 10% human serum; type: cell-based
[3] = AUC in Sprague-Dawley rat at 5 mg/kg administered as single dose; type: ADME, organism-based; design: dose 5 mg/kg; details: plasma
[4] = Half life in Sprague-Dawley rat at 5 mg/kg administered as single dose; type: ADME, organism-based; design: dose 5 mg/kg; details: in vivo
[5] = Clearance in Sprague-Dawley rat at 5 mg/kg administered as single dose; type: ADME, organism-based; design: dose 5 mg/kg; details: in vivo
[6] = Metabolic stability in human liver microsomes after 30 mins by LC/MS analysis; type: ADME, Microsome; details: read-out: Stability
[7] = Metabolic stability in Sprague-Dawley rat liver microsomes after 30 mins by LC/MS analysis; type: ADME, Microsome; details: read-out: Stability

T1 sequence (P20701 whole entry): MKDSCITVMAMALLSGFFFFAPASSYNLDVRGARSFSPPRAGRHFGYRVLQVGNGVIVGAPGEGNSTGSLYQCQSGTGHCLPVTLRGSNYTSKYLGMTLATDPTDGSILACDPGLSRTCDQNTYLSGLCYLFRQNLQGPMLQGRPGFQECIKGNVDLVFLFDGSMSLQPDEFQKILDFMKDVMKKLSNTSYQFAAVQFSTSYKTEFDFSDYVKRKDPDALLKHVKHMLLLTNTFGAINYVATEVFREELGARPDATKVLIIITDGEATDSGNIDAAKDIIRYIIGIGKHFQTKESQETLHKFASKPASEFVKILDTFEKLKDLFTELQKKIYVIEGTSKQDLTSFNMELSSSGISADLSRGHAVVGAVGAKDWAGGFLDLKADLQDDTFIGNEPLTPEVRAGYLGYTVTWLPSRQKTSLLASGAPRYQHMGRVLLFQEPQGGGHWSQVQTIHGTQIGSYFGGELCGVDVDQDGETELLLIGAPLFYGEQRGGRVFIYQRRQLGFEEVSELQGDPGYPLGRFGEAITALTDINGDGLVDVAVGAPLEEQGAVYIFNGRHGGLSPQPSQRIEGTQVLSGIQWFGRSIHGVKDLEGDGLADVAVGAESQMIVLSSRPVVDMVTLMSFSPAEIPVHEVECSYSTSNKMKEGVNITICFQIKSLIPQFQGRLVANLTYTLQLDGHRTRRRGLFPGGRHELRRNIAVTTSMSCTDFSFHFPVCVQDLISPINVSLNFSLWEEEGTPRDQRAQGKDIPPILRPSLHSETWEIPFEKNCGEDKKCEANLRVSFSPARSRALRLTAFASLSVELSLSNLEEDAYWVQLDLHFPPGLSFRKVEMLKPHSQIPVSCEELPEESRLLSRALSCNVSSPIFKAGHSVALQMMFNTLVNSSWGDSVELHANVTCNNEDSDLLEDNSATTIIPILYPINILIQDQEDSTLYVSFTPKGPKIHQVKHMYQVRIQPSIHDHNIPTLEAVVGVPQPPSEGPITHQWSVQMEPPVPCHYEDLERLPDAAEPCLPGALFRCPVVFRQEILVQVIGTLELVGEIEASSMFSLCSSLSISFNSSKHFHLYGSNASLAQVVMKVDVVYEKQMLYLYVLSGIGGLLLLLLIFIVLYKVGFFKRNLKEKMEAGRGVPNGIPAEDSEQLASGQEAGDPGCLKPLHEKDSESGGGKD
T1 sequence (P05362 whole entry): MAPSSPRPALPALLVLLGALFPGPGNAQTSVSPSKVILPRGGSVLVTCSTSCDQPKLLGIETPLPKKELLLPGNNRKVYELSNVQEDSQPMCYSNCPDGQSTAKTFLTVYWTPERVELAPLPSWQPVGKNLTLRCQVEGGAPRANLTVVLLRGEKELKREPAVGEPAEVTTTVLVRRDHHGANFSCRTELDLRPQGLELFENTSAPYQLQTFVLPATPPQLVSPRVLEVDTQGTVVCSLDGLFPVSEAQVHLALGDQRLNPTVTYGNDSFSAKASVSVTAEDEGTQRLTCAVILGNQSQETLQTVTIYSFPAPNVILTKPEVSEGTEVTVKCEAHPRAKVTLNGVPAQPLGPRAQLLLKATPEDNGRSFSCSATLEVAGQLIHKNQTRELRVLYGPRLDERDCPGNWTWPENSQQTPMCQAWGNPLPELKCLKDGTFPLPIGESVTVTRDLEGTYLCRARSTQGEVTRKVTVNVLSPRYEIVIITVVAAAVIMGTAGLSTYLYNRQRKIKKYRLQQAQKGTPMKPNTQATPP
T1 sequence (P05107 whole entry): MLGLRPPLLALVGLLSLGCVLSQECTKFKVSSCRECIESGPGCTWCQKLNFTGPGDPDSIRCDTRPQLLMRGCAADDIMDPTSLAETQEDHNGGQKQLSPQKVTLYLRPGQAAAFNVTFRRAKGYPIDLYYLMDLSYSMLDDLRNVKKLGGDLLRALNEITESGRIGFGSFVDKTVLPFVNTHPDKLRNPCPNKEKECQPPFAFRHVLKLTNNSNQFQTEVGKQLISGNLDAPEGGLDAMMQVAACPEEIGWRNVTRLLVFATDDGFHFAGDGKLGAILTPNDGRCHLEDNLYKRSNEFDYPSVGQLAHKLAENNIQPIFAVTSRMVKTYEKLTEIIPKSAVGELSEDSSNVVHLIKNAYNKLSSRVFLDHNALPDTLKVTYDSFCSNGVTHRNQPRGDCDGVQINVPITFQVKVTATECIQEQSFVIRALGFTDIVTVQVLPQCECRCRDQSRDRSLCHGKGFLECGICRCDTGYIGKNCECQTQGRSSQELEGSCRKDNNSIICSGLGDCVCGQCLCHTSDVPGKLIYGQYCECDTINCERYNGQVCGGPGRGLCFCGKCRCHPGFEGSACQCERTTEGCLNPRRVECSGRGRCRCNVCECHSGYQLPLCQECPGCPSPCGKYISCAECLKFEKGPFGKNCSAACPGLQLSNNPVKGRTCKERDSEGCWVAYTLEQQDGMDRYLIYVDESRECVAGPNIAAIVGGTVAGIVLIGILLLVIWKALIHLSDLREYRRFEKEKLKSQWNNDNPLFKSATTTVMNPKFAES

Row | Compound | IC50 [1] | IC50 [2] | other results
1 | CC(C)n1cnc(C[C@H](NC(=O)c2c(Cl)cc3c(c2Cl)CCN(C(=O)c2ccc(Cl)cc2)C3)C(=O)O)c1 | 170 nM | – | –
2 | CC(C)c1cnc(C[C@H](NC(=O)c2c(Cl)cc3c(c2Cl)CCN(C(=O)c2ccc(Cl)cc2)C3)C(=O)O)s1 | > 1000 nM | – | –
3 | Cc1ccc2c(C[C@H](NC(=O)c3c(Cl)cc4c(c3Cl)CCN(C(=O)c3ccc(Cl)cc3)C4)C(=O)O)cn(S(C)(=O)=O)c2c1 | 39 nM | 25000 nM | –
4 | CS(=O)(=O)c1ccc(C[C@H](NC(=O)c2c(Cl)cc3c(c2Cl)CCN(C(=O)c2ccc4ccoc4c2)C3)C(=O)O)o1 | 1.2 nM | 96 nM | AUC [3]: 1510 ng·h/mL; half-life [4]: 25.8 min; clearance [5]: 60 mL/min/kg; remaining at 0.5 h [6]: > 95%; remaining at 0.5 h [7]: > 65%
5 | NS(=O)(=O)n1cc(C[C@H](NC(=O)c2c(Cl)cc3c(c2Cl)CCN(C(=O)c2ccc(Cl)cc2)C3)C(=O)O)c2ccccc21 | > 1000 nM | – | –
6 | O=C(NC[C@H](NC(=O)c1c(Cl)cc2c(c1Cl)CCN(C(=O)c1ccc3ccoc3c1)C2)C(=O)O)c1cccs1 | 5 nM | 950 nM | –
7 | O=C(N[C@@H](Cc1c[nH]cn1)C(=O)O)c1c(Cl)cc2c(c1Cl)CCN(C(=O)c1ccc(Cl)cc1)C2 | 430 nM | – | –
8 | Cc1ccc2c(c1)c(C[C@H](NC(=O)c1c(Cl)cc3c(c1Cl)CCN(C(=O)c1ccc(Cl)cc1)C3)C(=O)O)cn2S(C)(=O)=O | 26 nM | 11000 nM | –
9 | O=C(NC[C@H](NC(=O)c1c(Cl)cc2c(c1Cl)CCN(C(=O)c1ccc(Cl)cc1)C2)C(=O)O)c1cccs1 | – | 1500 nM | –
10 | CC(C)n1cc(C[C@H](NC(=O)c2c(Cl)cc3c(c2Cl)CCN(C(=O)c2ccc4ccoc4c2)C3)C(=O)O)nn1 | 19 nM | 950 nM | AUC [3]: 3680 ng·h/mL; half-life [4]: 58.2 min; clearance [5]: 26 mL/min/kg; remaining at 0.5 h [6]: 86%; remaining at 0.5 h [7]: > 95%
11 | O=C(N[C@@H](Cc1cn(-c2ccccc2)cn1)C(=O)O)c1c(Cl)cc2c(c1Cl)CCN(C(=O)c1ccc(Cl)cc1)C2 | > 1000 nM | – | –
12 | CC(C)c1cc(C[C@H](NC(=O)c2c(Cl)cc3c(c2Cl)CCN(C(=O)c2ccc(Cl)cc2)C3)C(=O)O)[nH]n1 | 250 nM | – | –
13 | CS(=O)(=O)c1ncc(C[C@H](NC(=O)c2c(Cl)cc3c(c2Cl)CCN(C(=O)c2ccc4ccoc4c2)C3)C(=O)O)[nH]1 | 30 nM | 560 nM | –
14 | Cc1cccc2c(C[C@H](NC(=O)c3c(Cl)cc4c(c3Cl)CCN(C(=O)c3ccc(Cl)cc3)C4)C(=O)O)cn(S(C)(=O)=O)c12 | 140 nM | 25000 nM | –
15 | CC(=O)n1cc(C[C@H](NC(=O)c2c(Cl)cc3c(c2Cl)CCN(C(=O)c2ccc(Cl)cc2)C3)C(=O)O)c2ccccc21 | 820 nM | – | –
16 | CC(C)n1cc(C[C@H](NC(=O)c2c(Cl)cc3c(c2Cl)CCN(C(=O)c2cc4ccccn4n2)C3)C(=O)O)nn1 | 7 nM | 260 nM | –
17 | CS(=O)(=O)c1ccc(C[C@H](NC(=O)c2c(Cl)cc3c(c2Cl)CCN(C(=O)c2ccc4ccoc4c2)C3)C(=O)O)s1 | 150 nM | – | –
18 | CCOC(=O)[C@H](CNC(=O)c1cccs1)NC(=O)c1c(Cl)cc2c(c1Cl)CCN(C(=O)c1ccc3ccoc3c1)C2 | – | 950 nM | –
19 | CS(=O)(=O)n1cc(C[C@H](NC(=O)c2c(Cl)cc3c(c2Cl)CCN(C(=O)c2ccc(Cl)cc2)C3)C(=O)O)c2ccccc21 | 100 nM | 25000 nM | –
20 | CC(C)n1cc(C[C@H](NC(=O)c2c(Cl)cc3c(c2Cl)CCN(C(=O)c2cc4ccccc4o2)C3)C(=O)O)nn1 | 5 nM | 190 nM | –
21 | CC(C)n1cc(C[C@H](NC(=O)c2c(Cl)cc3c(c2Cl)CCN(C(=O)c2ccc(Cl)cc2)C3)C(=O)O)nn1 | 59 nM | 1000 nM | AUC [3]: 1410 ng·h/mL; half-life [4]: 138 min; clearance [5]: > 60 mL/min/kg; remaining at 0.5 h [6]: 92%
22 | Cc1cccc2c1c(C[C@H](NC(=O)c1c(Cl)cc3c(c1Cl)CCN(C(=O)c1ccc(Cl)cc1)C3)C(=O)O)cn2S(C)(=O)=O | > 1000 nM | – | –
23 | CS(=O)(=O)N1CCC(C[C@H](NC(=O)c2c(Cl)cc3c(c2Cl)CCN(C(=O)c2ccc4ccoc4c2)C3)C(=O)O)C1 (stereo not given in full) | 1000 nM | – | –
24 | CC(C)c1cn(C[C@H](NC(=O)c2c(Cl)cc3c(c2Cl)CCN(C(=O)c2ccc(Cl)cc2)C3)C(=O)O)nn1 | 310 nM | – | –
25 | Cn1cnc(C[C@H](NC(=O)c2c(Cl)cc3c(c2Cl)CCN(C(=O)c2ccc(Cl)cc2)C3)C(=O)O)c1 | 560 nM | – | –
